Reference: patent publication US20260345640A1 (priority 2025, published 2026)
Values after ≈ are worked out from the molar mass of the structure shown. Counter-ions that a name gives are not always drawn. Like-named read-outs stand apart in the source and are kept apart here.

What was measured:
[1] = system: E. coli DH5αZ1 expressing Tet50; experiment: Minimum inhibitory concentration, Tet50-expressing strain; format: cell-based; details: 20 h; for MIC: Escherichia coli; for MIC, Tet50, +TC: presence of 8 μg/mL TC, 37 °C
Description: (§1) The panels were stored at −80 °C before use. Single colonies of E. coli DH5αZ1 containing TetX7, Tet50, or empty vector in pZE24 expression system were grown in MH-II broth with KAN50 and growth for overnight at 37 °C. On the day of the experiment, MIC panels were thawed at room temperature. […] The panels were incubated at 37 °C for 20 h, then scored by visual inspection. […] Each test was performed in triplicate, with no-antibiotic and no-cell control wells.
(§2) Minimum inhibitory concentrations (MICs) were determined using the broth microdilution method according to CLSI guidelines. Visual inspection of bacterial growth and measurement of the OD600 were used to determine the lowest concentration at which bacterial growth was inhibited.

[2] = system: E. coli DH5αZ1 expressing TetX7; experiment: Minimum inhibitory concentration, TetX7-expressing strain; format: cell-based; details: Escherichia coli, 20 h
Description: as §1, §2

Tet50 = molecular target: T1, Tet50 (Unknown prokaryotic organism, UniProt A0A059WYP6); experiment: In vitro inhibition of TC oxidation by Tet50 (A400), variable preincubation, dark or blue light; format: biochemical; details: role: inhibitor, 100 μM TC, 500 μM NADPH
T1 construct: made in house; host or cells: E. coli BL21-Star (DE3)
T1 sequence (A0A059WYP6 whole entry): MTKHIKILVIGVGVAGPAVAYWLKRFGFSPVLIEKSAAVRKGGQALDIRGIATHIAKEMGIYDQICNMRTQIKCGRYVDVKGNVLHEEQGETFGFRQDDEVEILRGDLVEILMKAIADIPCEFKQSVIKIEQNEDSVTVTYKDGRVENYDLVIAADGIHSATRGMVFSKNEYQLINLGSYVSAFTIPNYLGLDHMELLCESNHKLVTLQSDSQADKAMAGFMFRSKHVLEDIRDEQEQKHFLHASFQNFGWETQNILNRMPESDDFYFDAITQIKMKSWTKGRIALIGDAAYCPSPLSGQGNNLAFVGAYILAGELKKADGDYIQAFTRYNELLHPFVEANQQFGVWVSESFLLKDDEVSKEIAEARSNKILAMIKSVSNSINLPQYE
Description: PHBH activity was determined similarly using para-hydroxybenzoic acids as substrate and monitoring for NADPH consumption via A340. […] Reaction samples were prepared in a Costar 96-well flat bottom clear, polystyrene plate and incubated under dark or a 700 lm blue LED bulb held at a distance of 20 cm for various durations. Incubation times were 0, 30, 60, 120, and 240 min under dark or 0, 1, 2, 4, and 8 min under blue light. […] Initial enzyme velocities were determined by linear regression over the linear range of the reaction (typically between 0 and 1 min). […] The velocities were plotted against the logarithm of inhibitor concentration, and apparent IC50 plots were analyzed using GraphPad prism 10 software. […] All apparent IC50 values were plotted against the duration of incubation time and fitted to an exponential decay function. All data points were shown as means and error bars represented standard deviation at least two independent experiments.
TetX7 and TetX6 as model Type 1 enzymes and Tet50 as a model Type 2 enzyme were used.
A hallmark of covalent enzyme inhibition was time dependence given that longer exposure of the enzyme to the inhibitor allowed for more inactivating turnovers. […] The apparent IC50 values were determined for each preincubation time point by monitoring the TDase velocity at A400 under various inhibitor concentrations. The apparent IC50 values were plotted against the preincubation times to determine if the TDase inhibition was time-dependent (FIG. 6).

[3] = dark, 30 min preincubation of inhibitor with enzyme prior to initiating assay, read-out: Apparent IC50 values, Tet50
[4] = read-out: Apparent IC50 value over 7 min blue light, blue light, 7 min

Row | Compound | MIC ([1]; read-out: MIC, Tet50, −TC) [µg/mL] | MIC, Tet50, +TC [1] [µg/mL] | IC50 (Tet50; [3]) [µM] | IC50 (Tet50; [4]) [µM] | also measured
1 | Cc1c2c(c(O)c3c(O)c(CNC4(C)CC4)ccc13)C(=O)C1(O)C(=O)C(C(N)=O)=C(O)C(N(C)C)C1C2 [Compound 103, (4S,4aS,12aS)-4-(Dimethylamino)-3,10,11,12a-tetrahy-droxy-6-methyl-9-(((1-methylcyclopropyl)amino)methyl)-1,12-dioxo-1,4,4a,5,12,12a-hexahydrotetracene-2-carboxamide Hydrochloride] | 64 | 16 | – | – | MIC ([2]; read-out: MIC, TetX7, −TC): 64 µg/mL
2 | C#CCNCc1ccc2c(C)c3c(c(O)c2c1O)C(=O)[C@]1(O)C(=O)C(C(N)=O)=C(O)[C@@H](N(C)C)[C@@H]1C3.Cl [Compound 104, (4S,4aS,12aS)-4-(Dimethylamino)-3,10,11,12a-tetrahydroxy-6-methyl-1,12-dioxo-9-((prop-2-yn-1-ylamino)-methyl)-1,4,4a,5,12,12a-hexahydrotetracene-2-carboxamide Hydrochloride] | – | 8 | 600 ± 40 | – | –
3 | C#CCN(C)Cc1ccc2c(C)c3c(c(O)c2c1O)C(=O)[C@]1(O)C(=O)C(C(N)=O)=C(O)[C@@H](N(C)C)[C@@H]1C3 [Compound 105] | 32 (≈ 63 µM) | 16 | 470 ± 60 | 107 ± 6 | –
4 | Cc1c2c(c(O)c3c(O)cccc13)C(=O)[C@]1(O)C(=O)C(C(N)=O)=C(O)[C@@H](N(C)C)[C@@H]1C2 [Compound 106, Anhydrotetracycline, reference compound] | – | – | – | 70 ± 10 | IC50 (Tet50; blue light, start of course, read-out: Apparent IC50 value at start of blue light course): 500 ± 60 µM; IC50 (Tet50; dark, 240 min preincubation, read-out: Apparent IC50 value over 240 min preincubation): 340 ± 40 µM
5 | CN(C)[C@@H]1C(O)=C(C(N)=O)C(=O)[C@@]2(O)C(O)=C3C(=O)c4c(O)cccc4[C@@](C)(O)[C@H]3C[C@@H]12 [TC, tetracycline, reference compound] | – | – | – | – | MIC ([1]; read-out: MIC of TC against Tet50::pZE24): 16 µg/mL; MIC ([2]; read-out: MIC of TC against TetX7::pZE24): 16 µg/mL
